Results published in patent US20240228458A1, “PYRIMIDINE DERIVATIVE HAVING PROTEIN KINASE INHIBITORY ACTIVITY, AND THERAPEUTIC PHARMACEUTICAL COMPOSITION COMPRISING SAME” (THERAPEX CO., LTD., priority 2021, published 2024).

What was measured:
Format in all cases: cell-based
[1] = test system: Ba/F3 cells expressing EGFR-wt; experiment: Growth inhibition (GI50) of Ba/F3 cells expressing EGFR-wt, Celltiter glo; settings: Mus musculus, BaF3, 72 h
In short: (§1)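 Antiproliferative activity was assessed in EGFR-mutant or wild-type Ba/F3 cells over 72 h at 37 °C with 5% CO2. Cell viability was determined by CellTiter-Glo, and GI50 taken as the compound concentration inhibiting growth by 50%.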

[2] = test system: Ba/F3 cells expressing del19/T790M/C797S (EGFR-DTC); experiment: Growth inhibition (GI50) of Ba/F3 cells expressing del19/T790M/C797S (EGFR-DTC), Celltiter glo; settings: Mus musculus, BaF3, 72 h
In short: as §1

[3] = test system: Ba/F3 cells expressing L858R/T790M/C797S (EGFR-LTC); experiment: Growth inhibition (GI50) of Ba/F3 cells expressing L858R/T790M/C797S (EGFR-LTC), Celltiter glo; settings: Mus musculus, BaF3, 72 h
In short: as §1

[4] = test system: Ba/F3 cells expressing del19/T790M (EGFR-DT); experiment: Growth inhibition (GI50) of Ba/F3 cells expressing del19/T790M (EGFR-DT), Celltiter glo; settings: Mus musculus, BaF3, 72 h
In short: as §1

[5] = test system: Ba/F3 cells expressing L858R/T790M (EGFR-LT); experiment: Growth inhibition (GI50) of Ba/F3 cells expressing L858R/T790M (EGFR-LT), Celltiter glo; settings: Mus musculus, BaF3, 72 h
In short: as §1

[6] = test system: parental Ba/F3 cell line; experiment: Growth inhibition (GI50) of the parental Ba/F3 cell line (not introduced with EGFR variants), Celltiter glo; settings: Mus musculus, BaF3, 72 h, parental Ba/F3 cells
In short: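 Viable cell count by CellTiter-Glo after 72 h at 37 °C gave GI50 values (μM, 50% growth inhibition). Cells lacking EGFR variants were seeded at 100,000 cells/ml and dosed 4 h later with 4-fold serial dilutions from a 2 mM stock, 0.5% DMSO.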

| SMILES | GI50 [1] [nM] | GI50 [2] [nM] | GI50 [3] [nM] | GI50 [4] [nM] | GI50 [5] [nM] | GI50 [6] [nM] |
| --- | --- | --- | --- | --- | --- | --- |
| CCc1cc(Nc2ncc(Cl)c(Nc3cc4c(cc3NS(C)(=O)=O)CCO4)n2)c(OC)cc1N1CCC(N2CCN(C)CC2)CC1 [Example 206, N-(6-((5-chloro-2-((5-ethyl-2-methoxy-4-(4-(4-methylpiperazin-1-yl)piperidin-1-yl)phenyl)amino)pyrimidin-4-yl)amino)-2,3-dihydrobenzofuran-5-yl)methanesulfonamide] | 100 to 500 | 1 to 25 | 25 to 100 | 1 to 25 | 1 to 25 | 2000 to 10000 |
| COc1cc(N2CCC(N3CCNCC3)CC2)c(C)cc1Nc1ncc(Cl)c(Nc2cc3c(cc2NS(C)(=O)=O)CCO3)n1 [Example 207, N-(6-((5-chloro-2-((2-methoxy-5-methyl-4-(4-(piperazin-1-yl)piperidin-1-yl)phenyl)amino)pyrimidin-4-yl)amino)-2,3-dihydrobenzofuran-5-yl)methanesulfonamide] | 100 to 500 | 25 to 100 | 25 to 100 | 25 to 100 | 1 to 25 | 2000 to 10000 |
| COc1cc(N2CCC(N3CCN(C4CC4)CC3)CC2)c(C)cc1Nc1ncc(Cl)c(Nc2cc3c(cc2NS(C)(=O)=O)CCO3)n1 [Example 208, N-(6-((5-chloro-2-((4-(4-(4-cyclopropylpiperazin-1-yl)piperidin-1-yl)-2-methoxy-5-methylphenyl)amino)pyrimidin-4-yl)amino)-2,3-dihydrobenzofuran-5-yl)methanesulfonamide] | 100 to 500 | 1 to 25 | 25 to 100 | 1 to 25 | 1 to 25 | 2000 to 10000 |
| COc1cc(N2CCC(N3CCC(N(C)C)C3)CC2)c(C)cc1Nc1ncc(Cl)c(Nc2cc3c(cc2NS(C)(=O)=O)CCO3)n1 (stereo not drawn) [Example 209, N-(6-((5-chloro-2-((4-(4-(3-(dimethylamino)pyrrolidin-1-yl)piperidin-1-yl)-2-methoxy-5-methylphenyl)amino)pyrimidin-4-yl)amino)-2,3-dihydrobenzofuran-5-yl)methanesulfonamide] | 100 to 500 | 1 to 25 | 25 to 100 | 25 to 100 | 1 to 25 | 2000 to 10000 |
| Cc1cc(Nc2ncc(Cl)c(Nc3cc4c(cc3NS(C)(=O)=O)CCO4)n2)c(Cl)cc1N1CCC(N2CCC(N(C)C)C2)CC1 (stereo not drawn) [Example 210, N-(6-((5-chloro-2-((2-chloro-4-(4-(3-(dimethylamino)pyrrolidin-1-yl)piperidin-1-yl)-5-methylphenyl)amino)pyrimidin-4-yl)amino)-2,3-dihydrobenzofuran-5-yl)methanesulfonamide] | 500 to 2000 | 100 to 500 | 25 to 100 | 25 to 100 | 25 to 100 | 2000 to 10000 |
| COc1cc(N2CCC(N3CCC(N(C)C)C3)CC2)c(C)cc1Nc1ncc(Br)c(Nc2cc3c(cc2NS(C)(=O)=O)CCO3)n1 (stereo not drawn) [Example 211, N-(6-((5-bromo-2-((4-(4-(3-(dimethylamino)pyrrolidin-1-yl)piperidin-1-yl)-2-methoxy-5-methylphenyl)amino)pyrimidin-4-yl)amino)-2,3-dihydrobenzofuran-5-yl)methanesulfonamide] | 100 to 500 | 25 to 100 | 1 to 25 | 1 to 25 | 25 to 100 | 2000 to 10000 |
| COc1cc(N2CCC(N3CCN(C4CC4)CC3)CC2)c(C)cc1Nc1ncc(Br)c(Nc2cc3c(cc2NS(C)(=O)=O)CCO3)n1 [Example 212, N-(6-((5-bromo-2-((4-(4-(4-cyclopropylpiperazin-1-yl)piperidin-1-yl)-2-methoxy-5-methylphenyl)amino)pyrimidin-4-yl)amino)-2,3-dihydrobenzofuran-5-yl)methanesulfonamide] | 100 to 500 | 25 to 100 | 1 to 25 | 1 to 25 | 1 to 25 | 2000 to 10000 |
| Cc1cc(Nc2ncc(Br)c(Nc3cc4c(cc3NS(C)(=O)=O)CCO4)n2)c(Cl)cc1N1CCC(N2CCC(N(C)C)C2)CC1 (stereo not drawn) [Example 213, N-(6-((5-bromo-2-((2-chloro-4-(4-(3-(dimethylamino)pyrrolidin-1-yl)piperidin-1-yl)-5-methylphenyl)amino)pyrimidin-4-yl)amino)-2,3-dihydrobenzofuran-5-yl)methanesulfonamide] | 100 to 500 | 25 to 100 | 25 to 100 | 1 to 25 | 100 to 500 | 2000 to 10000 |
| Cc1cc(Nc2ncc(Br)c(Nc3cc4c(cc3NS(C)(=O)=O)CCO4)n2)c(Cl)cc1N1CCC(N2CCCC(N(C)C)C2)CC1 (stereo not drawn) [Example 214, N-(6-((5-bromo-2-((2-chloro-4-(3-(dimethylamino)-[1,4′-bipiperidin]-1′-yl)-5-methylphenyl)amino)pyrimidin-4-yl)amino)-2,3-dihydrobenzofuran-5-yl)methanesulfonamide] | 100 to 500 | 25 to 100 | 25 to 100 | 1 to 25 | 1 to 25 | 2000 to 10000 |
| COc1cc(N2CCC(N3CCNCC3)CC2)c(C)cc1Nc1ncc(Br)c(Nc2cc3c(cc2NS(C)(=O)=O)CCO3)n1 [Example 215, N-(6-((5-bromo-2-((2-methoxy-5-methyl-4-(4-(piperazin-1-yl)piperidin-1-yl)phenyl)amino)pyrimidin-4-yl)amino)-2,3-dihydrobenzofuran-5-yl)methanesulfonamide] | 100 to 500 | 25 to 100 | 25 to 100 | 1 to 25 | 25 to 100 | 2000 to 10000 |
| COc1cc(N2CCC(N3CCCC(N(C)C)C3)CC2)c(Cl)cc1Nc1ncc(Br)c(Nc2cc3c(cc2NS(C)(=O)=O)CCO3)n1 (stereo not drawn) [Example 216, N-(6-((5-bromo-2-((5-chloro-4-(3-(dimethylamino)-[1,4′-bipiperidin]-1′-yl)-2-methoxyphenyl)amino)pyrimidin-4-yl)amino)-2,3-dihydrobenzofuran-5-yl)methanesulfonamide] | 25 to 100 | 1 to 25 | 25 to 100 | 1 to 25 | 1 to 25 | 2000 to 10000 |
| CN1CCN(C2CCN(c3cc(Cl)c(Nc4ncc(Br)c(Nc5cc6c(cc5NS(C)(=O)=O)CCO6)n4)cc3Cl)CC2)CC1 [Example 217, N-(6-((5-bromo-2-((2,5-dichloro-4-(4-(4-methylpiperazin-1-yl)piperidin-1-yl)phenyl)amino)pyrimidin-4-yl)amino)-2,3-dihydrobenzofuran-5-yl)methanesulfonamide] | 100 to 500 | 1 to 25 | 1 to 25 | 1 to 25 | 1 to 25 | 500 to 2000 |
| COc1cc(N2CCC(N3CCCC(N(C)C)C3)CC2)c(C)cc1Nc1ncc(Cl)c(Nc2cc3c(cc2NS(C)(=O)=O)CCO3)n1 (stereo not drawn) [Example 218, N-(6-((5-chloro-2-((4-(3-(dimethylamino)-[1,4′-bipiperidin]-1′-yl)-2-methoxy-5-methylphenyl)amino)pyrimidin-4-yl)amino)-2,3-dihydrobenzofuran-5-yl)methanesulfonamide] | 100 to 500 | 1 to 25 | 100 to 500 | 1 to 25 | 25 to 100 | 500 to 2000 |
| COc1cc(N2CCC(N3CCCC(N(C)C)C3)CC2)c(Cl)cc1Nc1ncc(Cl)c(Nc2cc3c(cc2NS(C)(=O)=O)CCO3)n1 (stereo not drawn) [Example 219, N-(6-((5-chloro-2-((5-chloro-4-(3-(dimethylamino)-[1,4′-bipiperidin]-1′-yl)-2-methoxyphenyl)amino)pyrimidin-4-yl)amino)-2,3-dihydrobenzofuran-5-yl)methanesulfonamide] | 100 to 500 | 1 to 25 | 25 to 100 | 1 to 25 | 1 to 25 | 2000 to 10000 |
| COc1cc(N2CCC(N3CCN(C)CC3)CC2)ccc1Nc1ncc(Cl)c(Nc2cc3c(cc2NS(C)(=O)=O)CCO3)n1 [Example 220, N-(6-((5-chloro-2-((2-methoxy-4-(4-(4-methylpiperazin-1-yl)piperidin-1-yl)phenyl)amino)pyrimidin-4-yl)amino)-2,3-dihydrobenzofuran-5-yl)methanesulfonamide] | 500 to 2000 | 100 to 500 | 100 to 500 | 100 to 500 | 25 to 100 | 25 to 100 |
| CN1CCN(C2CCN(c3ccc(Nc4ncc(Cl)c(Nc5cc6c(cc5NS(C)(=O)=O)CCO6)n4)c(Cl)c3)CC2)CC1 [Example 221, N-(6-((5-chloro-2-((2-chloro-4-(4-(4-methylpiperazin-1-yl)piperidin-1-yl)phenyl)amino)pyrimidin-4-yl)amino)-2,3-dihydrobenzofuran-5-yl)methanesulfonamide] | 100 to 500 | 25 to 100 | 25 to 100 | 25 to 100 | 25 to 100 | 500 to 2000 |
| COc1cc(N2CCC(N3CCN(C)CC3)CC2)c(F)cc1Nc1ncc(Cl)c(Nc2cc3c(cc2NS(C)(=O)=O)CCO3)n1 [Example 222, N-(6-((5-chloro-2-((5-fluoro-2-methoxy-4-(4-(4-methylpiperazin-1-yl)piperidin-1-yl)phenyl)amino)pyrimidin-4-yl)amino)-2,3-dihydrobenzofuran-5-yl)methanesulfonamide] | 100 to 500 | 1 to 25 | 100 to 500 | 1 to 25 | 1 to 25 | 2000 to 10000 |
